In BindingDB's records for doi:10.1016/s0960-894x(00)00033-0 (Albany Molecular Research, 2000):
Several values for one entry are separate records, joined by “and”; a condition that tells them apart may be missing. Identical values can stand only once. Counter-ions that a name gives are not always drawn.

Columns and labels:
[1] = Binding affinity against Opioid receptor kappa 1 of calf cortex using [3H]-U-69,593 as radioligand
[2] = as above; remark: listed apart in the source
[3] = Binding affinity against Opioid receptor delta 1 of calf cortex using […] as radioligand

COCCC1CC2CN3CCc4c([nH]c5ccccc45)C(C(=O)OC)(C2)C13 (stereo not drawn) [(-)-18-Methoxycoronaridine hydrochloride]
Ki [1]: 5.5 µM and 5.1 µM
Ki [2]: 4.8 µM
Ki [3]: 3.5 µM
